Common to all, as to test: NCI anticancer screen, dose series, 48 h
The subject of experiment [1] is OVCAR-4 ovarian.
For experiment [2], the system named is SK-MEL-2 melanoma.
The test system of experiment [3] is HCC-2998 colon.
Experiment [4] relates to HCT-116 colon.
The subject of experiment [5] is UACC-62 melanoma.
Experiment [6] deals with OVCAR-8 ovarian.
Experiment [7] relates to MOLT-4 leukemia.
In experiment [8] the test system is HOP-62 NSCLC.
Experiment [9] deals with TK-10 renal.
Experiment [10] concerns MDA-MB-231 breast.

The structures appear in SMILES notation.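 Each compound was tested at five concentrations against cells in 96-well plates for 48 hours. GI50 = concentration required for 50% inhibition of growth. TGI denotes the concentration required for complete inhibition of growth.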 Where only a bound is given, the exact number is not on record here.

Consider `CC(=O)O[C@H]1CC[C@@]2(C)C(=CC[C@@H]3C2CC[C@]2(C)Nc4oncc4CC32)C1` (some centres not stated), for which the TGI in experiment [1] is 34.4 µM; in experiment [2], over 100 µM; in [3] it was over 100 µM; in experiment [4] it was 30.4 µM; in experiment [5] it was 99 µM; in experiment [6], over 100 µM. Further, the TGI in experiment [7] is 28.9 µM; in experiment [8], over 100 µM; in experiment [9] it was over 100 µM.

As for `CCCCCCCCCCCCC(Br)C(=O)SCCNC(=O)CCNC(=O)[C@@H](O)C(C)(C)COP(=O)(O)OP(=O)(O)OCC1OC(n2cnc3c(N)ncnc32)C(O)C1OP(=O)(O)O` (some centres not stated), the TGI in experiment [1], in experiment [2], in [3], in [4], in experiment [5] and in [6] was over 56.5 µM throughout. Also, the TGI in experiment [8] and in experiment [9] was over 56.5 µM throughout.

In the case of `CCOC(=O)[C@H]1Nc2ccc(O)cc2C2c3ccccc3CC21` (some centres not stated), the TGI in [1], in [2], in experiment [3], in [4], in experiment [5] and in experiment [6] was over 100 µM each time. The TGI in experiment [7], in [8] and in experiment [9] was over 100 µM each time.

On to `CCCCCCCCCCCCCC(=O)OCC1OC(OC)C(NC(=O)N(CCCl)N=O)C(O)C1O` (configuration not stated), for which the TGI in [1] came to 50.7 µM; in experiment [2] it was 71.2 µM; in [3], 65.6 µM; in experiment [4], 38.2 µM; in experiment [5], 20.1 µM; in experiment [6], 61.1 µM. Also, the TGI was found to be 29.4 µM in [7], 75.9 µM in experiment [8] and 90.7 µM in [9].

As to `O=c1c2ccccc2nc(-c2ccc(Cl)cc2)n1O`, the TGI is over 100 µM in [1]; over 100 µM in experiment [10]; over 100 µM in experiment [4]; over 100 µM in [5]; 48.4 µM in experiment [6]; over 100 µM in experiment [7]. In addition, the TGI in experiment [8] turned out to be 91.2 µM; in experiment [9] it was 88 µM.

For the compound `CCOc1ccc(NC(=O)C2=C(C)NC(C)=C(C(=O)Nc3ccc(OCC)cc3)C2c2ccc([N+](=O)[O-])cc2)cc1`, the TGI is over 100 µM in experiment [1]; 45.7 µM in experiment [2]; 52.7 µM in experiment [3]; over 100 µM in experiment [6]; 66.9 µM in experiment [7]; over 100 µM in [8]. In addition, the TGI in experiment [9] is over 100 µM.

As for `CCCNc1nc(-c2ccc(OC)cc2)nc2ccccc12`, the GI50 in [1] is 41 µM; in experiment [2], 35.2 µM; in experiment [3], 13.6 µM; in [4], 6.85 µM; in experiment [5], 15.4 µM; in experiment [6] it was 25 µM. Moreover, the GI50 in [7] is 46.4 µM; in experiment [8], 14.9 µM; in [9], 13.2 µM. Besides, the TGI in [1] was over 100 µM; in experiment [2], over 100 µM; in [3] it was 34.4 µM; in experiment [4] it was 27.7 µM; in experiment [5], 35.5 µM; in [6], 95 µM. Moreover, the TGI was over 100 µM in experiment [7], 31.2 µM in experiment [8] and 26.7 µM in [9].

For `O=S1(=O)CSc2ccc3ccccc3c2-c2c1ccc1ccccc21`, the TGI in [1], in experiment [3], in experiment [4], in experiment [5], in [6] and in [7] was over 100 µM throughout. In addition, the TGI in [8] and in experiment [9] was over 100 µM each time.

For `C[Si](C)(C)/C(Br)=C\CCN1C(=O)CCC1O` (configuration not stated), the TGI in experiment [1], in [2], in experiment [4], in experiment [5], in [6] and in [7] was over 100 µM throughout. Further, the TGI in experiment [9] is over 100 µM.

`N#CC(C#N)=C1NC(=O)C(c2ccccc2)C(=O)N1` (configuration not stated): the TGI in experiment [1], in experiment [3], in experiment [4], in [5], in [6] and in [7] was over 100 µM throughout. The TGI in [8] and in experiment [9] was over 100 µM each time.

Regarding `CC(C)(C)NNc1c([N+](=O)[O-])cnn(-c2ccccc2)c1=O`, the TGI in [1] turned out to be 6.61 µM; in experiment [3], 11.8 µM; in experiment [4] it was 5.63 µM; in experiment [5] it was 9.39 µM; in experiment [6], 4.74 µM; in [7] it was 4.91 µM. Also, the TGI in [8] came out at 22.3 µM; in [9], 36.8 µM.

`COC(=O)C1Cc2c([nH]c3ccccc23)C=N1` (configuration not stated): the TGI in experiment [1], in experiment [3], in [4], in [5], in experiment [6] and in experiment [7] was over 100 µM each time. Also, the TGI in experiment [8] and in experiment [9] was over 100 µM each time.

Turning to `COC(=O)/C(C#N)=C1\N=NNN1CCCc1ccccc1`, the TGI in [3], in experiment [4], in experiment [5], in experiment [6], in experiment [7] and in experiment [9] was over 100 µM throughout.

Regarding `Cc1cc2c(=O)cc(-c3ccc(Cl)cc3)oc2c(C(=O)O)c1C`, the TGI in experiment [1], in experiment [2], in [4], in [5], in experiment [6] and in [7] was over 100 µM each time. In experiment [9], this compound displayed a TGI of over 100 µM.

As for `COc1nc2c(nc(N)n2C2OC(CO)C(O)C(O)C2O)c(=O)n1C` (configuration not stated), the TGI in experiment [1], in experiment [3], in [4], in [5], in experiment [6] and in experiment [8] was over 100 µM in each case. The same compound showed a TGI in experiment [9] of over 100 µM.

Source of the values: PubChem BioAssay (NCI).
